The values that follow come from US20220031723A1, “POWDERED FOOD COMPOSITION COMPRISING ERIOCITRIN” (EUROMED, S.A., priority 2020, published 2022).

In brackets after ≈: the same amount, converted by molar mass.

The conditions of data set [1]: cited from earlier work; for water solubility: in water.
Data set [2] can be described thus: Occurrence of plasma and urine metabolites in volunteers after consuming lemon or orange extract. The format is in vivo, human. The note with it: human, in vivo. An excerpt: Through a targeted metabolomic strategy, a total of 17 metabolites were tentatively identified (Table 3). No hesperidin or eriocitrin-derived metabolites were detected in any volunteer at baseline. All the identified metabolites were detected at least in one volunteer, independently of the extract consumed, except for the metabolites M9 (eriodictyol sulfoglucuronide) and M11 (hesperetin sulfoglucuronide), which only were detected after consuming lemon and orange extract, respectively (Table 3). These representative EICs illustrate the metabolites identified in urine (F3 fraction) after consuming lemon (FIG. 3A) and orange (FIG. 3B) extracts, and plasma after consuming lemon (FIG. 3C) and orange (FIG. 3D) extracts. From the 17 metabolites, 16 were detected after consuming lemon extract (except M11), and 15 after consuming orange extract (except M9 and M10 in urine, and M9 and M12 in plasma) (Table 3).

Data set [3] in a line: Urinary excretion of quantified metabolites in collected fractions after extract intake. The note with it: mean ± SD; for Metabolite quantified in urine fraction F1: fraction 0 to 4 h; for Metabolite quantified in urine fraction F2: fraction 4 to 8 h; for Metabolite quantified in urine fraction F3: fraction 8 to 10 h; for Metabolite quantified in urine fraction F4: fraction collected at 24 h (10-24 h); for Metabolite quantified in urine, Total F (24 h): sum of fractions F1-F4. Format: in vivo, human. The protocol:
Table 4 and Table 5 show the urinary excretion of quantified metabolites at the different fractions collected, i.e., 0-4 h (F1), 4-8 h (F2), 8-10 h (F3), and 10-24 h (F4), after extracts intake.

Regarding `C[C@@H]1O[C@@H](OC[C@H]2O[C@@H](Oc3cc(O)c4c(c3)O[C@H](c3ccc(O)c(O)c3)CC4=O)[C@H](O)[C@@H](O)[C@@H]2O)[C@H](O)[C@H](O)[C@H]1O` [eriocitrin, Eriocitrin], in data set [1], the solubility in water is recorded as 4000 micrograms/ml and the water solubility entry is “about 40 mg/ml”.

Consider `COc1ccc([C@@H]2CC(=O)c3c(O)cc(O[C@@H]4O[C@H](C(=O)O)[C@@H](O)[C@H](O)[C@H]4O)cc3O2)cc1O` [M7, Hesperetin 7-O-glucuronide], for which, in data set [2], the “Occurrence Plasma LE (number of volunteers in whom metabolite was detected)” value is listed as 16, the “Occurrence Plasma LE (second column so headed; number of volunteers in whom metabolite was detected)” value is 16, the “Occurrence Urine LE (number of volunteers in whom metabolite was detected)” value stood at 16 and the “Occurrence Urine LE (second column so headed; number of volunteers in whom metabolite was detected)” value stood at 16. Further, in data set [3] (after consuming lemon extract), the “Metabolite quantified in urine fraction F1” value was 1.2 ± 1.4 μg/mg creatinine, the “Metabolite quantified in urine fraction F2” value was determined as 4.0 ± 4.7 μg/mg creatinine, the “Metabolite quantified in urine fraction F3” value stood at 2.7 ± 2.5 μg/mg creatinine and the “Metabolite quantified in urine fraction F4” value turned out to be 0.6 ± 0.6 μg/mg creatinine. The “Metabolite quantified in urine, Total F (24 h)” value (from here on “Metabolite quantified … (24 h)”) in data set [3] (after consuming lemon extract) was determined as 8.5 ± 9.2 μg/mg creatinine. Also, in data set [3] (after consuming orange extract), the “Metabolite quantified in urine fraction F1” value is on record as 0.2 ± 0.6 μg/mg creatinine, the “Metabolite quantified in urine fraction F2” value is recorded as 2.1 ± 5.7 μg/mg creatinine, the “Metabolite quantified in urine fraction F3” value is recorded as 2.2 ± 3.6 μg/mg creatinine and the “Metabolite quantified in urine fraction F4” value came out at 1.1 ± 3.3 μg/mg creatinine. For the same compound, the “Metabolite quantified … (24 h)” value in data set [3] (after consuming orange extract) came out at 5.6 ± 13.2 μg/mg creatinine.

In the case of `COc1ccc(C2CC(=O)c3c(O)cc(O)cc3O2)cc1OS(=O)(=O)O` (stereo not shown) [M14, Hesperetin 3'-O-sulfate], in data set [2], the “Occurrence Plasma LE (number of volunteers in whom metabolite was detected)” value is 16, the “Occurrence Plasma LE (second column so headed; number of volunteers in whom metabolite was detected)” value is on record as 16, the “Occurrence Urine LE (number of volunteers in whom metabolite was detected)” value is listed as 16 and the “Occurrence Urine LE (second column so headed; number of volunteers in whom metabolite was detected)” value stood at 16. In data set [3] (after consuming lemon extract), the “Metabolite quantified in urine fraction F1” value came out at 1.9 ± 2.6 μg/mg creatinine, the “Metabolite quantified in urine fraction F2” value turned out to be 4.3 ± 4.5 μg/mg creatinine, the “Metabolite quantified in urine fraction F3” value was found to be 3.3 ± 3.1 μg/mg creatinine and the “Metabolite quantified in urine fraction F4” value is on record as 0.7 ± 0.6 μg/mg creatinine. Besides, in data set [3] (after consuming lemon extract), the “Metabolite quantified … (24 h)” value is given as 9.0 ± 9.1 μg/mg creatinine. In addition, in data set [3] (after consuming orange extract), the “Metabolite quantified in urine fraction F1” value is given as 0.1 ± 0.3 μg/mg creatinine, the “Metabolite quantified in urine fraction F2” value was determined as 1.2 ± 3.3 μg/mg creatinine, the “Metabolite quantified in urine fraction F3” value is on record as 1.9 ± 3.1 μg/mg creatinine and the “Metabolite quantified in urine fraction F4” value is given as 0.6 ± 0.6 μg/mg creatinine. For the same compound, the “Metabolite quantified … (24 h)” value in data set [3] (after consuming orange extract) worked out at 3.8 ± 7.3 μg/mg creatinine.

On to Homoeriodictyol sulfate [M10], for which, in data set [2], the “Occurrence Plasma LE (number of volunteers in whom metabolite was detected)” value amounted to 16, the “Occurrence Plasma LE (second column so headed; number of volunteers in whom metabolite was detected)” value came to 3, the “Occurrence Urine LE (number of volunteers in whom metabolite was detected)” value came to 16 and the “Occurrence Urine LE (second column so headed; number of volunteers in whom metabolite was detected)” value was found to be 0. Moreover, in data set [3] (after consuming lemon extract), the “Metabolite quantified in urine fraction F1” value is recorded as 3.8 ± 3.2 μg/mg creatinine, the “Metabolite quantified in urine fraction F2” value is 4.0 ± 5.5 μg/mg creatinine, the “Metabolite quantified in urine fraction F3” value was determined as 3.6 ± 4.1 μg/mg creatinine and the “Metabolite quantified in urine fraction F4” value came to 0.5 ± 0.4 μg/mg creatinine. In addition, the “Metabolite quantified … (24 h)” value in data set [3] (after consuming lemon extract) turned out to be 9.6 ± 11.3 μg/mg creatinine.

Turning to `COc1ccc([C@@H]2CC(=O)c3c(O)cc(O[C@@H]4O[C@H](CO[C@@H]5O[C@@H](C)[C@H](O)[C@@H](O)[C@H]5O)[C@@H](O)[C@H](O)[C@H]4O)cc3O2)cc1O` [hesperidin, Hesperidin, reference compound], in data set [1], the solubility in water is listed as 5 micrograms/ml and the water solubility was 4.9 µg/mL (≈ 8.03 µM).

Take `COc1ccc(C2CC(=O)c3c(O)cc(O)cc3O2)cc1O[C@@H]1O[C@H](C(=O)O)[C@@H](O)[C@H](O)[C@H]1O` (stereo partly shown) [M8, Hesperetin 3'-O-glucuronide]: in data set [2], the “Occurrence Plasma LE (number of volunteers in whom metabolite was detected)” value is given as 16, the “Occurrence Plasma LE (second column so headed; number of volunteers in whom metabolite was detected)” value turned out to be 16, the “Occurrence Urine LE (number of volunteers in whom metabolite was detected)” value was 16 and the “Occurrence Urine LE (second column so headed; number of volunteers in whom metabolite was detected)” value was found to be 16. Further, in data set [3] (after consuming lemon extract), the “Metabolite quantified in urine fraction F1” value is listed as 2.1 ± 2.3 μg/mg creatinine, the “Metabolite quantified in urine fraction F2” value came out at 10.7 ± 11.3 μg/mg creatinine, the “Metabolite quantified in urine fraction F3” value was found to be 9.2 ± 7.7 μg/mg creatinine and the “Metabolite quantified in urine fraction F4” value was 2.2 ± 2.4 μg/mg creatinine. Moreover, the “Metabolite quantified … (24 h)” value in data set [3] (after consuming lemon extract) amounted to 24.2 ± 23.7 μg/mg creatinine. Also, in data set [3] (after consuming orange extract), the “Metabolite quantified in urine fraction F1” value stood at 0.5 ± 1.5 μg/mg creatinine, the “Metabolite quantified in urine fraction F2” value is 4.3 ± 11.5 μg/mg creatinine, the “Metabolite quantified in urine fraction F3” value came out at 3.3 ± 4.2 μg/mg creatinine and the “Metabolite quantified in urine fraction F4” value is 1.8 ± 1.6 μg/mg creatinine. Further, in data set [3] (after consuming orange extract), the “Metabolite quantified … (24 h)” value is 9.9 ± 18.9 μg/mg creatinine.
